Measurements as given in patent publication US20070104778A1, “Controlled-release emulsion compositions” (priority 2005, published 2007).
≈ marks a conversion by molar mass, not a printed value. Read-outs that look alike come from different tables or passages of the source.

Key:
[1] = Solubility of clozapine in solvent; type: physicochemical; settings: organic solvent or mixture
[2] = Solubility of clozapine in organic acid and Vitamin E-TPGS + organic acid combination
[3] = Solubility of clozapine in different pH medium; type: physicochemical

solubility ([1]; 2-pyrrolidinone (Soluphor-P)): > 250 mg/mL
solubility ([1]; N-methyl-2-pyrrolidinone (NMP)): > 300 mg/mL
solubility (Bile extract 1% w/v surfactant solution, aqueous with cosolvent or surfactant or cyclodextrin): 941 µg/mL (≈ 2880 µM)
solubility (Brij 700 1% w/v surfactant solution, aqueous with cosolvent or surfactant or cyclodextrin): 336 µg/mL (≈ 1030 µM)
solubility (Cremphor A25 1% w/v surfactant solution, aqueous with cosolvent or surfactant or cyclodextrin): 506 µg/mL (≈ 1550 µM)
solubility (Cremphor A-6 1% w/v surfactant solution, aqueous with cosolvent or surfactant or cyclodextrin): 11.5 µg/mL (≈ 35.2 µM)
solubility (Cremphor RH 40 1% w/v surfactant solution, aqueous with cosolvent or surfactant or cyclodextrin): 115 µg/mL (≈ 351 µM)
solubility (Labrasol 1% w/v surfactant solution, aqueous with cosolvent or surfactant or cyclodextrin): 70.6 µg/mL (≈ 216 µM)
solubility (Lutrol F-68 1% w/v surfactant solution, aqueous with cosolvent or surfactant or cyclodextrin): 15.3 µg/mL (≈ 46.8 µM)
solubility (PEG 400 1% w/v surfactant solution): 30.9 µg/mL (≈ 94.6 µM)
solubility (PEG 600 1% w/v surfactant solution): 29.7 µg/mL (≈ 90.8 µM)
solubility (PEG distearate 1% w/v surfactant solution, aqueous with cosolvent or surfactant or cyclodextrin): 952 µg/mL (≈ 2910 µM)
solubility (PEG-diolaurate 1% w/v surfactant solution, aqueous with cosolvent or surfactant or cyclodextrin): 104 µg/mL (≈ 320 µM)
solubility (PEG-monolaurate 1% w/v surfactant solution, aqueous with cosolvent or surfactant or cyclodextrin): 372 µg/mL (≈ 1140 µM)
solubility (Sodium Dodecylate Sulfate (SDS) 1% w/v surfactant solution, aqueous with cosolvent or surfactant or cyclodextrin): 1140 µg/mL (≈ 3480 µM)
solubility (Sodium desoxycholate 1% w/v surfactant solution, aqueous with cosolvent or surfactant or cyclodextrin): 342 µg/mL (≈ 1050 µM)
solubility (Solutol HS15 1% w/v surfactant solution, aqueous with cosolvent or surfactant or cyclodextrin): 344 µg/mL (≈ 1050 µM)
solubility (Span 20 1% w/v surfactant solution, aqueous with cosolvent or surfactant or cyclodextrin): 16.1 µg/mL (≈ 49.4 µM)
solubility (Tween 20 1% w/v surfactant solution, aqueous with cosolvent or surfactant or cyclodextrin): 158 µg/mL (≈ 485 µM)
solubility (Tween 80 1% w/v surfactant solution, aqueous with cosolvent or surfactant or cyclodextrin): 399 µg/mL (≈ 1220 µM)
solubility ([2]; Alginic acid 1% w/v, aqueous buffer): 9.99 µg/mL
solubility ([2]; Ascorbic acid 1% w/v, aqueous buffer): 259 µg/mL
solubility ([2]; Citric acid (0.1M), aqueous buffer): 35400 µg/mL
solubility ([2]; Fumaric acid (0.01M), aqueous buffer): 8880 µg/mL
solubility ([2]; Oleinic acid 1% w/v, aqueous with cosolvent or surfactant or cyclodextrin): 9.86 µg/mL
Solubility of Clozapine in Organic Acid ([2]; Stearic acid 1% w/v): Form conjugated compound
solubility ([2]; Succinic acid (0.05M), aqueous buffer): 25700 µg/mL
solubility ([3]; DI water, water): 11.8 µg/mL (≈ 36.1 µM)
Solubility (pH dependent behavior) ([3]; low pH regions): fairly good solubility
solubility ([3]; pH 1.5 medium, pH 1.5, simulated gastric fluid): 712 µg/mL (≈ 2180 µM)
solubility ([3]; pH 7.5 medium, pH 7.5, aqueous buffer): 30.7 µg/mL (≈ 93.9 µM)
Solubility (pH dependent behavior) ([3]; pH beyond 5): low solubility
Compound: CN1CCN(C2=Nc3cc(Cl)ccc3Nc3ccccc32)CC1 [Clozapine, clozapine]
